# Source: patent US7202278B2, “4-fluoro-N-indan-2-yl benzamide and its use as a pharmaceutical” (Sanofi-Aventis Deutschland GmbH, priority 2001, dated 2007)
# How the values were obtained:
# [1] = system: eNOS deficient mice; assay: Blood pressure in eNOS deficient mice (tail-cuff); format: in vivo; details: similar dosing, after 4 weeks treatment
# Source text: (§1) ApoE and eNOS deficient mice (C57BL/6J background, Jackson Laboratory, Bar Harbor, Me.) were used. All animals were 10–12 weeks of age and weighed 22 to 28 g. Three days before surgery, mice were divided into 4 groups (apoE control, n=10–12; apoE with compound (I), n=10–12; eNOS control, n=10–12; eNOS with compound (I), n=10–12) and received either a standard rodent chow (containing 4% fat and 0.001% cholesterol; in the following designated as placebo group) or a standard rodent chow+compound (I) (10 or 30 mg/kg/d p.o.).
# (§2) Blood-pressure was determined in conscious mice using a computerized tail-cuff system.
# [2] = system: ApoE deficient mice; assay: Improvement of coronary function in diseased ApoE deficient mice (isolated working heart); format: in vivo
# Experimental: Old Male wild-type C57BL/6J mice (Charles River Wiga GmbH, Sulzfeld), and apolE deficient mice (C57BL/6J background, Jackson Laboratory, Bar Harbor, Me.) 6 month of age and weighing 28 to 36 g were used in the experiments. Mice were divided into 3 groups (C57BL/6, n=8; apoE control, n=8; apoE with compound (I), n=8) and received for 8 weeks either a standard rodent chow (containing 4% fat and 0.001% cholesterol) or a standard rodent chow+compound (I) (30 mg/kg/d p.o.).
# Mice were anesthetized with sodium pentobarbitone (100 mg/kg i.p.), and the hearts were rapidly excised and placed into ice-cold perfusion buffer. The aorta was cannulated and connected to a perfusion apparatus (HUGO SACHS ELECTRONICS, Freiburg, Germany) which was started immediately at a constant perfusion pressure of 60 mm Hg. Hearts were perfused in a retrograde fashion with modified Krebs bicarbonate buffer, equilibrated with 95% O2 and 5% CO2 and maintained at 37.5° C.
# A beveled small tube (PE 50) was passed through a pulmonary vein into the left ventricle and pulled through the ventricular wall, anchored in the apex by a fluted end, and connected to a tip-micromanometer (Millar 1.4 French). The left atrium was cannulated through the same pulmonary vein and the heart switched to the working mode with a constant preload pressure of 10 mm Hg and an afterload pressure of 60 mm Hg. Aortic outflow and atrial inflow were continuously measured using ultrasonic flow probes (HSE/Transonic Systems Inc.). Coronary flow was calculated as the difference between atrial flow and aortic flow. All hemodynamic data were digitized at a sampling rate of 1000·Hz and recorded with a PC using specialized software (HEM, Notocord).
# Hearts were allowed to stabilize for 30 min. All functional hemodynamic data were measured during steady state, and during volume- and pressure loading.
# Left ventricular function curves were constructed by varying pre-load pressure. For acquisition of preload curves, afterload was set at 60 mm Hg and preload was adjusted in 5 mm Hg steps over a range of 5 to 25 mm Hg. […]
# [3] = system: ApoE deficient mice; assay: Inhibition of neointima formation and atherogenesis (femoral artery cuff), ApoE deficient mice; format: in vivo
# Source text: as §1
# After 3 days treatment of ApoE deficient mice with compound (I), (10 mg/kg/d pressed in chow), animals were anesthetized with an intraperitoneal injection of pentobarbital (60 mg/kg) followed by an intramuscular injection of xylazin (2 mg/kg) and a cuff was placed around the femoral artery as described in Moroi et at. (J Clin Invest. 101:1225–32, 1998). Briefly, the left femoral artery was dissected. A non-occlusive 2.0 mm polyethylene cuff made of PE-50 tubing (inner diameter 0.56 mm, outer diameter 0.965 mm, Becton Dickinson, Mountain View, Calif.) was placed around the artery and tied in place with two 7–0 sutures. The right femoral artery was isolated from the surrounding tissues but a cuff was not placed. Treatment with compound (I) was continued for 14 days after surgery. Then the animals were sacrificed. The aortas were taken for determination of vascular eNOS expressions by quantitative western blotting. Both femoral arteries were harvested, fixed in formalin and embedded in paraffin. 20 cross sections (10 μm) were cut from the cuffed portion of the left femoral artery and from the corresponding segment of the right artery. Sections were subjected to standard hematoxylin and eosin staining. Morphometric analyses were performed using an image analysis computer program (LeicaQWin, Leica Imaging Systems, Cambridge, GB). For each cross section the area of the lumen, the neointima and the media were determined. […] The ratio between the area of the neointima and the area of the media was expressed as the neointima/media ratio.
# [4] = system: eNOS protein expression; assay: eNOS protein detection in HUVEC by quantitative Western blotting; format: cell-based, human; details: 18 h incubation
# Experimental: The effect of the compound (I) on eNOS-transcription was confirmed in a second assay based on eNOS protein detection. Primary human umbilical vein cord endothelial cells (HUVEC) were isolated and cultivated according to standard procedures. Confluent cells were incubated with compound (I) for 18 h and the effect on eNOS protein expression determined by a quantitative Western blotting procedure. After incubation of compound (I), HUVEC were lysed in ice-cold lysis buffer containing 10 mM Tris-HCl, pH 8.0, 1% SDS and protease inhibitors. The lysate was subjected to a standard denaturating polyacrylamid gel electropheresis and blotted to nitrocellulose membranes. Using a specific primary monoclonal antibody (Transduction Laboratories, UK) and alkaline phosphatase labelled secondary antibody (Jackson Labs), a specific eNOS protein band was visualized and quantified based on a chemifluorescence detection method.
# [5] = system: ApoE deficient mice; assay: Anti-hypertensive effect in ApoE knockout mice (tail-cuff); format: in vivo; details: 30 mg/kg/d p.o. in chow, after 4 months treatment, placebo 115±2 mmHg, p<0.05
# Source text: as §1, §2
# [6] = system: eNOS deficient mice; assay: Femoral artery cuff model in eNOS deficient mice; format: in vivo; details: similar setup
# Source text: as §1
# After 3 days treatment of ApoE deficient mice with compound (I), (10 mg/kg/d pressed in chow), animals were anesthetized with an intraperitoneal injection of pentobarbital (60 mg/kg) followed by an intramuscular injection of xylazin (2 mg/kg) and a cuff was placed around the femoral artery as described in Moroi et at. (J Clin Invest. 101:1225–32, 1998). Briefly, the left femoral artery was dissected. […] The aortas were taken for determination of vascular eNOS expressions by quantitative western blotting. […] For each cross section the area of the lumen, the neointima and the media were determined. […] The ratio between the area of the neointima and the area of the media was expressed as the neointima/media ratio.
# [7] = system: ApoE deficient mice; assay: Prevention of atherosclerotic plaque formation in chronic treatment; format: in vivo
# Source text: as §1
# ApoE deficient mice were treated for 16 weeks with compound (I) pressed in chow and finally sacrificed. Aortas were removed from each mouse, fixed in formalin and embedded in paraffin. Plaque formation was measured via lipid lesions formation in the aortas (from aortic arch to diaphragm) and was analyzed by oil red O staining. For quantifying the effect of the respective compound on vascular eNOS expression the […] were used in this experiment.
# [8] = system: eNOS promoter; assay: Activation of eNOS transcription (eNOS promoter-luciferase reporter); format: cell-based, human; details: 18 h incubation
# Experimental: Activation of eNOS transcription was measured as described in detail in Li et al. “Activation of protein kinase C alpha and/or epsilon enhances transcription of the human endothelial nitric oxide synthase gene”, Mol. Pharmacol. 1998, 53: 630–637.
# Briefly, a 3.5 kB long fragment 5′ of the starting codon of the eNOS gene was cloned, sequenced and cloned in firefly luciferase expression plasmids to monitor activation of the eNOS promoter by reporter gene activity. A human endothelial cell line stable transfected and expressing this promoter-reporter construct was used for compound testing. Cells were incubated for 18 h with the compound (I).
# Prior to incubation of the cells, the compound (I) was dissolved in sterile DMSO. A final concentration of 0.5% DMSO in complete medium was obtained. Induction of reporter gene expression in these cells was measured using a standard luciferase assay system (Promega, Cat. No E150) according to the manufacturer's instructions. Luciferase induction in cells incubated with compound (I) were compared to those incubated with solvent alone. The ratio of both activities (transcription induction ratio, TIR) was plotted as a function of compound concentration. […] EC50 values of transcription induction ratios as a function of compound concentration were determined graphically.
# [9] = isolated hearts of ApoE deficient mice, 30 mg/kg/d p.o., 8 weeks
smiles,measurement,setting,value
"O=C(NC1Cc2ccccc2C1)c1ccc(F)cc1 [compound (I), 4-fluoro-N-indan-2-yl benzamide]",blood pressure reduction,[1],No blood pressure reduction could be observed
same,coronary flow,"[2]; isolated hearts of ApoE deficient mice treated 8 weeks with 30 mg/kg/d p.o., wildtype 4.95 ml/min",5 mL/min
same,incidence of ventricular arrhythmias,[2]; [9],reduced
same,pre-load dependent coronary flow,[2]; [9],improved
same,reduction of neo-intima formation (factor),"[3]; 10 mg/kg/d in chow, 3 days before to 14 days after cuff surgery",2
same,neointima to media ratio,"[3]; 10 mg/kg/d in chow, cuffed femoral artery, placebo 0.39±0.07",0.170±0.04
same,vascular eNOS expression enhanced by a factor,"[3]; 10 mg/kg/d, aortas, quantitative western blotting",2.1
same,effect on eNOS protein expression,[4],confirmed
same,blood pressure,[5],92±5 mmHg
same,effect on neointima formation / eNOS expression,[6],No effect
same,overall plaque size in % of total surface,"[7]; 16 weeks treatment in chow, aortas, oil red O staining, placebo 13.3±2.6",5.2±1%
same,vascular eNOS expression up-regulation,"[7]; 16 weeks treatment, femoral arteries",1.75 fold
same,EC50,"[8]; human endothelial cell line stably transfected with eNOS promoter-luciferase construct, read-out: EC50 of transcription induction ratio",800 nM
same,TIR(max) (maximum transcription induction ratio),"[8]; human endothelial cell line, ratio versus solvent alone",4.10
